According to patent publication US12540137B2, “N-1 branched alkyl ether substituted imidazo[4,5-c]quinoline compounds, compositions, and methods” (Solventum Intellectual Properties Company, priority 2018, dated 2026):

How the values were obtained:
human TLR7 = target: T1, human TLR7 (Homo sapiens, UniProt Q9NYK1); assay: TLR activation, HEK-BLUE-hTLR7 SEAP reporter cells; type: cell-based; conditions: 16-20 hours, SEAP response at least 2× vehicle control, tested 0.01-30 micromolar
T1 construct: host or cells: HEK293 (HEK-BLUE-hTLR7)
T1 sequence (Q9NYK1 27-1049): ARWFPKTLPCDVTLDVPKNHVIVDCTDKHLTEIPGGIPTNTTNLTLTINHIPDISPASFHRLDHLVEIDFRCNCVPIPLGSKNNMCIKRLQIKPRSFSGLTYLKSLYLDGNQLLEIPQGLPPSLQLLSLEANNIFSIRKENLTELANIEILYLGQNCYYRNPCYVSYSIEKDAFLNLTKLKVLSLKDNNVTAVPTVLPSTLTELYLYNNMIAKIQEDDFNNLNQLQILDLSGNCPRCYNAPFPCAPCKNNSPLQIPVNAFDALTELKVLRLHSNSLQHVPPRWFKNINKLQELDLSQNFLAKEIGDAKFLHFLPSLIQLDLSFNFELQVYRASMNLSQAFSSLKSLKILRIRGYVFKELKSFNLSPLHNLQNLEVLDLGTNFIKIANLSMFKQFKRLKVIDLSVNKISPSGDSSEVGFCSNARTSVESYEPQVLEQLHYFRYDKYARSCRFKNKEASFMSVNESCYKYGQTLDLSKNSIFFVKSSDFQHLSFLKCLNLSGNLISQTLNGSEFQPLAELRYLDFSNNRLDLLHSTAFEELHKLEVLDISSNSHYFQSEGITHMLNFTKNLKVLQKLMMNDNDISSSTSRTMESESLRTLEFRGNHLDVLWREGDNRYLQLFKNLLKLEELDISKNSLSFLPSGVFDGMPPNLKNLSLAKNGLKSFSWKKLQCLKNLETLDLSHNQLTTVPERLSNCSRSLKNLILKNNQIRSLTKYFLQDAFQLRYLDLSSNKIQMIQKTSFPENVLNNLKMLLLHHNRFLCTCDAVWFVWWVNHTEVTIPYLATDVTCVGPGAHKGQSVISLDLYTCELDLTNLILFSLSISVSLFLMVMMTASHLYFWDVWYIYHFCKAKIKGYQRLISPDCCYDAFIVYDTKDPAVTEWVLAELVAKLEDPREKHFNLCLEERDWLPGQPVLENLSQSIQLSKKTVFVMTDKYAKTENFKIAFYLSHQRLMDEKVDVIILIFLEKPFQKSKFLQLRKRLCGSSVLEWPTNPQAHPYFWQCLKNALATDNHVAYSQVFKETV
Protocol: (§1) HEK-BLUE-hTLR7 or hTLR8 reporter cells were obtained from InvivoGen, San Diego, CA. According to the manufacturer's description, these reporter cells were prepared by co-transfection of HEK293 cells with an inducible secreted embryonic alkaline phosphatase (SEAP) reporter gene and either the human TLR7 or TLR8 gene. The SEAP reporter gene was placed under the control of an IFN−β minimal promoter fused to five NF-κB and AP-1-binding sites. In the presence of a TLR ligand, activation of NF-κB and AP-1 occurs, resulting in a corresponding increase in SEAP levels.
(§2) In the assay, the HEK cells were grown and maintained using standard cell culture techniques in a growth medium that contained Dulbecco's Modified Eagle Medium (ThermoFisher Scientific Incorporated, Waltham, MA) supplemented with 1% penicillin/streptomycin and 10% heat-inactivated Gibco fetal bovine serum (ThermoFisher Scientific). Each compound was solubilized in DMSO to create a 3 mM stock solution. The stock solution was then further diluted with the growth medium to prepare serial dilutions. Each test compound was tested at a concentration of 30, 10, 3.3, 1.1, 0.37, 0.12, 0.04, and 0.01 micromolar using a 96-well format with 5×10^4 cells and 200 microliters of growth medium per well.
(§3) For each compound, hTLR7, hTLR8, and their respective null control HEK cells were screened. DMSO serially diluted into the growth medium served as the vehicle control. Cell culture supernatants containing the SEAP reporter were collected after an incubation period of 16-20 hours in a cell culture incubator (37° C. and 5% CO2), and either analyzed immediately or stored at −80° C. SEAP levels were measured using the colorimetric enzyme assay (QUANTI-BLUE (InvivoGen) according to manufacturer's instructions.
(§4) Specifically, the minimum effective concentration of each compound (micromolar) was determined as the lowest concentration of the compound that produced a SEAP expression response at least 2× greater than that observed with the vehicle control wells.

human TLR8 = target: T2, human TLR8 (Homo sapiens, UniProt Q9NR97); assay: TLR activation, HEK-BLUE-hTLR8 SEAP reporter cells; type: cell-based; conditions: 16-20 hours, SEAP response at least 2× vehicle control, tested 0.01-30 micromolar
T2 construct: host or cells: HEK293 (HEK-BLUE-hTLR8)
T2 sequence (Q9NR97 27-1041): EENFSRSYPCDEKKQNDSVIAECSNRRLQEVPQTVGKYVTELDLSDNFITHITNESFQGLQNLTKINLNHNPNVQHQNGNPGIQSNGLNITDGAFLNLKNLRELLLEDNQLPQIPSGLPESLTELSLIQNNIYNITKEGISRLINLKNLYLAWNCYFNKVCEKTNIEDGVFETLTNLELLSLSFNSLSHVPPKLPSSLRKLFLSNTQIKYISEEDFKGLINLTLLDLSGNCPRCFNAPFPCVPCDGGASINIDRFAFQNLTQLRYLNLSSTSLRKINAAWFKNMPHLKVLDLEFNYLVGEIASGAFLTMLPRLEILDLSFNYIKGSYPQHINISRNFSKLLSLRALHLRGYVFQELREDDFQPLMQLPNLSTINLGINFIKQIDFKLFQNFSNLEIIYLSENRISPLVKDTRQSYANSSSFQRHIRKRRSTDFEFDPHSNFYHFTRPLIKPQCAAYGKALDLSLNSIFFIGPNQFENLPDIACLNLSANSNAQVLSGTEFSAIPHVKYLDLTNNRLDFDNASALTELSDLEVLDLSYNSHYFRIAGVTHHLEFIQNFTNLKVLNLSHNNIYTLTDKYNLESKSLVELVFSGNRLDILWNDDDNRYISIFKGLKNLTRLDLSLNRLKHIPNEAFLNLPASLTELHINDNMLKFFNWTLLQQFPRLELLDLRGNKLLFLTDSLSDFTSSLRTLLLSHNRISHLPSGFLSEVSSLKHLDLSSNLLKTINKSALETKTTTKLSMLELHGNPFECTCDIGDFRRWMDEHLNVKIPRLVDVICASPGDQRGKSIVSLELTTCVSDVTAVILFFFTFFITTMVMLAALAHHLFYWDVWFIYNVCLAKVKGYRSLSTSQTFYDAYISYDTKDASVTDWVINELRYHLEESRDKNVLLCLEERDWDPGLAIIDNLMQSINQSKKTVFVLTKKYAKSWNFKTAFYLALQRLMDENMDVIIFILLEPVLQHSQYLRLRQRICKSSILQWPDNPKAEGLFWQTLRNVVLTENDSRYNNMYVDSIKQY
Protocol: as §1, §2, §3, §4

CCOC[C@@H](n1cnc2c(N)nc3ccccc3c21)C1(O)CCCC1 [Example 14, 1-[(1R)-1-(4-aminoimidazo[4,5-c]quinolin-1-yl)-2-ethoxy-ethyl]cyclopentanol]
MEC to Produce TLR Activation TLR 7 (human TLR7): 0.04 µM | MEC to Produce TLR Activation TLR 8 (human TLR8): 30 µM
